Measurements as given in patent US20070191495A1, “Lipase inhibitor” (FUJI OIL COMPANY, LIMITED, priority 2004, published 2007).

Experiments:
[1] = Digestion and absorption test in mouse; assay type: in vivo, C57BL/6J mice; settings: for Body fat percentage: PIXImus2; for Body weight: in g (unit assumed)
Procedure: Using the 2O2 fraction obtained in Preparation Example 1 and mice, a digestion and absorption test was performed for about 2 months. Seven-week-old C57BL/6J mice were pre-reared for 1 week and used for the test. The compounded feed shown in Table 2, which is prepared by partially modifying AIN-93G composition, or soybean oil as a control was fed to the mice for about 2 months. Each group consisted of 6 mice. After reared for about 2 months, a change in the body weight, feed efficiency and body fat percentage were measured. For measuring body fat percentage, an X-ray bone density measuring apparatus for exclusive use in experimental mice, PIXImus2 (GE Medical Systems) was used. As a result of a digestion and adsorption test on mice for 56 days, in a group using the 2O2 fraction, the body weight was reduced by about 10%, the feed efficiency was reduced by 17%, and the body fat percentage was reduced by about 14%.
Using the LUU/UUL fraction obtained in Preparation Example 3 and mice, a digestion and absorption test was performed for about 2 months. Seven-week-old C57BL/6J mice were pre-reared for 1 week and used for the test. The compounded feed shown in Table 5, which is prepared by partially modifying AIN-93G composition, or soybean oil as a control was fed to the mice for about 2 months. Each group consisted of 6 mice. After reared for about 2 months, a change in the body weight, feed efficiency and body fat percentage were measured. For measuring body fat percentage, an X-ray bone density measuring apparatus for exclusive use in experimental mice, PIXImus2 (GE Medical Systems) was used. As a result of a digestion and adsorption test on mice for 56 days, in a group using the […] fraction, the body weight was reduced by about 9%, the feed efficiency was reduced by 12%, and the body fat percentage was reduced by about 13%.
Using the glyceryl ether lipid fraction obtained in Preparation Example 4 and mice, a digestion and absorption test was performed for about 2 months. Seven-week-old C57BL/6J mice were pre-reared for 1 week and used for the test. The compounded feed shown in Table 8, which is prepared by partially modifying AIN-93G composition, or soybean oil as a control was fed to the mice for about 2 months. Each group consisted of 6 mice. After reared for about 2 months, a change in the body weight, feed efficiency and body fat percentage were measured. For measuring body fat percentage, an X-ray bone density measuring apparatus for exclusive use in experimental mice, PIXImus2 (GE Medical Systems) was used. As a result of a digestion and adsorption test on mice for 56 days, in a group using soybean oil/the glyceryl ether lipid fraction, the body weight and the feed efficiency were reduced by bout 10%, and the body fat percentage was reduced by about 12%.

pig pancreatic lipase = molecular target: T1, pig pancreatic lipase (Sus scrofa, UniProt P00591); assay: lipase activity measurement (free fatty acid released from emulsified fat, OD480); assay type: biochemical; settings: for Relative activity of test fat to soybean oil: 37° C., 1 hour
T1 construct: purchased Sigma
T1 sequence (P00591 1-450): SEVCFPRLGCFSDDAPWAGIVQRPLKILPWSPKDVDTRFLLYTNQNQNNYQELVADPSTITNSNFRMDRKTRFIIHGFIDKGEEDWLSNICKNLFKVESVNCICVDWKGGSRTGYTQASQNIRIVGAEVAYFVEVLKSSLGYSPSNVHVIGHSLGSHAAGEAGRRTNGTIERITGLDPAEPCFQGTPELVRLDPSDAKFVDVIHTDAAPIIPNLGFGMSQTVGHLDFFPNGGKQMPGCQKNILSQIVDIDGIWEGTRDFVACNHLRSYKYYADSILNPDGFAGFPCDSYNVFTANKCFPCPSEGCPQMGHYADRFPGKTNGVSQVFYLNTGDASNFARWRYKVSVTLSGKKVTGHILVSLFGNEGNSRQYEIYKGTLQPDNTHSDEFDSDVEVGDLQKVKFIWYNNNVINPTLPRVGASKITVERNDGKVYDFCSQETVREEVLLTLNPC
Procedure: (§1) Soybean oils of which 1 part (2O2 purity: about 0.8%), 5 parts (2O2 purity: about 4.2%), 10 parts (2O2 purity: about 8.3%) and 50 parts (2O2 purity about: 41.5%) were replaced with the 2O2 fraction obtained as described above, and the 2O2 fraction itself (2O2 purity: 83%) were used for the following lipase activity measurement. To 80 mg of each oil, 80 mg of phosphatidylcholine (Sigma), 5 mg of sodium taurocholate (Wako Pure Chemical Industries, Ltd.), and 9 ml of a 0.1 M TES buffer (PH 7) containing 0.1 M NaCl were added and the mixture was emulsified with an ultrasound oscillator for 1 minute to obtain a substrate. To 300 μl of the substrate, 5 μl (5U) of a pig pancreatic lipase (Sigma) was added and then reacted at 37° C. for 1 hour. To the reaction mixture was then added 3 ml of an extraction solvent (a mixture of chloroform/heptane/methanol=49 parts/49 parts/2 parts). The mixture was stirred vigorously and then centrifuged at 2500 rpm for 5 minutes. The upper layer was removed. To the lower layer was added 1 ml of a copper regent (prepared by dissolving 2.98 g of triethanolamine, 2.42 g of copper nitrate and 0.48 g of NaOH in 200 ml of water and then adding 66 g of NaCl). The mixture was stirred for 10 minutes and then centrifuged at 2500 rpm for 10 minutes to take 1.5 ml of the upper layer as a sample. To the sample was added 1.5 ml of a color-producing reagent (prepared by 0.2 g of bathocuproin and 0.1 g of butylhydroxyanisole in 200 ml of chloroform) and an absorbance at OD480 was measured as the quantity of free fatty acid.
as §1, with “(LUU/UUL” for “(2O2”, “0.7%),” for “0.8%),”, “3.5%) and” for “4.2%),”, “7.0%)” for “8.3%) and 50 parts (2O2 purity about: 41.5%)”, “LUU/UUL” for “2O2”, “70%)” for “83%)”
Soybean oils of which 1 part, 5 parts and 10 parts were replaced with the glyceryl ether lipid fraction obtained as described above, and the glyceryl ether lipid fraction itself were used for the following lipase activity measurement. To 80 mg of each oil, 80 mg of phosphatidylcholine (Sigma), 5 mg of sodium taurocholate (Wako Pure Chemical Industries, Ltd.), and 9 ml of a 0.1 M TES buffer (PH 7) containing 0.1 M NaCl were added and the mixture was emulsified with an ultrasound oscillator for 1 minute to obtain a substrate. To 300 μl of the substrate, 5 μl (5U) of a pig pancreatic lipase (Sigma) was added and then reacted at 37° C. for 1 hour. To the reaction mixture was then added 3 ml of an extraction solvent (a mixture of chloroform/heptane/methanol =49 parts/49 parts/2 parts). The mixture was stirred vigorously and then centrifuged at 2500 rpm for 5 minutes. […]

[2] = 56 days, versus soybean oil group
[3] = after rearing for 56 days, feed with 10.0 wt % soybean oil + 0.5 wt % test fraction
[4] = before initiation of rearing, feed with 10.0 wt % soybean oil + 0.5 wt % test fraction
[5] = fat composition soybean oil/test fat 0/100 (part), the fraction itself
[6] = fat composition soybean oil/test fat 50/50 (part)
[7] = fat composition soybean oil/test fat 90/10 (part)
[8] = fat composition soybean oil/test fat 95/5 (part)
[9] = fat composition soybean oil/test fat 99/1 (part)
[10] = soybean oil of which 1 part was replaced with the test fat

## CCCCCCCC/C=C\CCCCCCCC(=O)OC(COC(C)=O)COC(C)=O [2O2]
[1]; [2]
  body fat percentage reduced by: about 14%
  body weight reduced by: about 10%
  feed efficiency reduced by: 17%
[1]; [3]
  Body fat percentage: 34.8 ± 2.5
  Feed efficiency: 0.061 ± 0.002
  Body weight: 30.7 ± 1.4
[1]; [4]
  Body fat percentage: 19.1 ± 0.9
  Body weight: 22.8 ± 0.3
Pig pancreatic lipase; [5]
  Relative activity of test fat to soybean oil: 11%
Pig pancreatic lipase; [6]
  Relative activity of test fat to soybean oil: 48%
Pig pancreatic lipase; [7]
  Relative activity of test fat to soybean oil: 67%
Pig pancreatic lipase; [8]
  Relative activity of test fat to soybean oil: 66%
Pig pancreatic lipase; [9]
  Relative activity of test fat to soybean oil: 78%
Pig pancreatic lipase; [10]
  activity inhibited by: about 20%
Pig pancreatic lipase; soybean oil of which 5 parts were replaced with the test fat
  activity inhibited by: about 35%

## CCCCCCCC/C=C\CCCCCCCC(=O)OC(COC(=O)CCCCC)COC(=O)CCCCC [6O6]
Pig pancreatic lipase; [5]
  Relative activity of test fat to soybean oil: 30%
Pig pancreatic lipase; [6]
  Relative activity of test fat to soybean oil: 68%
Pig pancreatic lipase; [7]
  Relative activity of test fat to soybean oil: 74%
Pig pancreatic lipase; [8]
  Relative activity of test fat to soybean oil: 91%
Pig pancreatic lipase; [9]
  Relative activity of test fat to soybean oil: 86%
Pig pancreatic lipase; [10]
  activity inhibited by: about 15%
Pig pancreatic lipase; soybean oil of which 10 parts was replaced with the test fat
  activity inhibited by: about 25%
